Assay results taken from US7888355B2, “Compositions and methods for inhibiting growth and metastasis of melanoma” (Burnham Institute for Medical Research, priority 2007, dated 2011).

What was measured:
SW1 cells = experiment: cells; assay type: cell-based, mouse; conditions: for Activity or EC50 (μM) in SW1 cells: active/inactive wording, concentration given in cell
Method: (§1) Cell lines. Mouse melanoma (SW1) and human melanoma (LU1205) cells were maintained in DMEM supplemented with 10% FBS, L-glutamine and antibiotics. The human melanoma cell lines MEWO and WM115 were maintained in RPMI supplemented with 10% FBS and antibiotics. Primary mouse melanocytes were cultured in F-12 media supplemented with 10% FBS, antibiotics, IBMX (isobuthyl-methylxantine), bovine pituitary extract, and TPA.
Mitochondrial activity and apoptosis. Cells were exposed to the chemicals for 12-48 hours as indicated in Results. To measure changes in mitochondrial activity reflective of general cell viability, the ATPLITE ATP detection assay was used according to the manufacturer's recommendations (Perkin Elmer). Apoptosis analysis was performed by flow cytometry of PI-stained cells. The percentage of cells to the left of the diploid G0/1 peak, characteristic of hypodiploid cells that have partially lost DNA, was calculated as percentage of apoptotic cells (Bhoumik et al., PNAS 101:4222-7, 2004). Analysis of changes in Caspase 8 expression pattern was performed using immunoblot analysis. […]
Characterization of CSL and AIGA effects on mouse melanoma cells. The structures of AIGA and CSL are depicted in FIGS. 1a and 1b. AIGA was tested for cytotoxicity at concentrations ranging between 0.1 and 2 μM, whereas CSL was used at a concentration of 0.01 to 0.3 μM. SW1 cells or normal melanocytes were seeded on 96 well plates and 24 h late, cells were treated with the indicated concentrations of ATF2 50-100 peptide, AIGA, or CSL for 20 h. ATF2 50-100 peptide (cloned in mammalian expression vector in frame with penetratin was transfected with the aid of lipofectamine) was used as a positive control. ATP levels were used as an indicator of cell viability and were measured using the ATPLITE ATP detection assay kit. The number of surviving cells upon AIGA treatment was normalized to the number of surviving cells under the control treatment, and the normalized number was designated as the “% Viability.” Results shown in FIGS. 1c-1f represent 3 experiments. Treatment of SW1 melanoma cells with 1 μM of AIGA reduced the viability of melanoma cells to 10%, (FIG. 1c). Treatment of the SW1 cells with 0.05 μM of CSL reduced the viability of melanoma cells to 50%, and 0.1 μM reduced it to 10% (FIG. 1d). […] Normal melanocytes and fibroblasts were used as a control.
Thus, the two compounds were evaluated to determine if they require JNK activity for their effects on melanoma cells. To this end, the ability of AIGA or CSL to affect the viability of melanoma cells in the presence of a JNK inhibitor was tested. SW1 cells, with or without a 30-minute pretreatment with the JNK inhibitor SP600125 (10 μM), were contacted with AIGA or CSL at the indicated concentrations for 20 h. ATP levels were used to measure the cell viability using the ATPLITE kit. The number of surviving cells upon AIGA or CSL treatment was normalized to the number of surviving cells under the control treatment, and the normalized number was designated as the “% Viability.” Shown are representative results from 2 experiments. […] Of note, inhibition of JNK activity was more pronounced at lower concentrations of CSL compared with AIGA. […] To assess whether these compounds affect JNK activity, changes in JNK phosphorylation on residues 183/185, which are required for its kinase activity, were monitored. Western blot analysis for JNK phosphorylation on residues 183/185 was performed on protein extracts that were prepared from cells treated with AIGA at concentrations of 0.5 μM, 1.0 μM, and 2.0 μM and a control with no AIGA treatment. Duplicate samples were treated with JNK inhibitor (SP600125). Total level of JNK was analyzed in parallel. […]

WM115 cells = experiment: WM115 melanoma cell viability; assay type: cell-based, human; conditions: active/inactive wording, concentration given in cell
Method: as §1
(§2) Mitochondrial activity and apoptosis. Cells were exposed to the chemicals for 12-48 hours as indicated in Results. To measure changes in mitochondrial activity reflective of general cell viability, the ATPLITE ATP detection assay was used according to the manufacturer's recommendations (Perkin Elmer). Apoptosis analysis was performed by flow cytometry of PI-stained cells. The percentage of cells to the left of the diploid G0/1 peak, characteristic of hypodiploid cells that have partially lost DNA, was calculated as percentage of apoptotic cells (Bhoumik et al., PNAS 101:4222-7, 2004). Analysis of changes in Caspase 8 expression pattern was performed using immunoblot analysis.
The effects of CSL and AIGA on the human melanoma cell lines WM115 and MEWO were assessed. AIGA reduced the viability of the human melanoma cultures when added at a concentration of 0.5-2 μM (FIG. 5a and FIG. 5c) whereas CSL reduced their viability at a concentration of 0.1 μM-2 μM in WM115 cells (FIG. 5b) and 0.05 μM-2 μM in MeWO cells (FIG. 5d).

WM793 cells = experiment: WM793 melanoma cell viability; assay type: cell-based, human; conditions: active/inactive wording, concentration given in cell
Method: as §2

[1] = system: Human melanoma LU1205 cells; experiment: LU1205 lung metastasis in nude mice; assay type: in vivo, mouse; conditions: compound every second day, analysis 60 days after injection
Method: (§3) Tumor growth and metastasis in vivo. GFP-expressing SW1 cells were trypsinized, resuspended in PBS, and injected subcutaneously (1×10^6) into the lower flank of 6 to 7-week-old mice. When tumors reached a size of about 50 mm^3, the indicated compounds (100 μL of the vehicle—10% DMSO, 70% Cremophor/ethanol (3:1), and 20% PBS and 1.0 mg/kg of celastrol or 0.5 mg/kg of the derivatives CA16, CA19) were injected i.p. every alternate day. Body weight and tumor growth were monitored every 2 days. GFP-expressing SW1 tumors were monitored in vivo on shaved mice with a light box illuminated by blue light fiber optics (Lightools Research; Encinitas, Calif.), and imaging was carried out with a digital camera (Nikon D100). Tumors were measured for up to 3 weeks. For metastases studies, LU1205 cells (1×10^6) were injected i.v. into the lateral tail vein of nude mice. At the end of the experiment, the lungs and tumors were excised and weighed. To detect metastatic lesions, lungs were fixed in formalin, embedded in paraffin and subjected to hematoxylin and eosin staining.
The effect of CSL and CSL derivatives, CA16 and CA19, on the metastatic capacity of melanoma cells was then determined. Human melanoma LU1205 cells were injected into the tail vein of nude mice, followed by administration of the compounds every second day. This approach allows monitoring of changes in the number of lesions formed on the lungs, a primary organ for tumor cell growth under this experimental approach. Analysis performed 60 days following injection determined changes in the number and size of metastatic lesions in each of the experimental groups.

SW1 mouse melanoma = experiment: SW1 metastatic lesions in syngeneic C3H mice; assay type: in vivo; conditions: SW1 cells s.c. in C3H mice
Method: as §3
To further assess the impact of these compounds on the development of metastatic lesions, the SW1 mouse melanoma model using the syngeneic C3H strain was employed. Subcutaneous injection of SW1 cells results in tumor formation at the site of injection followed by metastasis to different sites within 6-8 weeks.

SW1 tumors = experiment: SW1 tumor growth in syngeneic C3H mice; assay type: in vivo, mouse; conditions: 0.5 mg/kg i.p. every second day for 24 days
Method: as §3
(§4) To assess the ability of CSL and CSL derivatives to affect the tumorigenicity and metastasis of melanoma, the mouse SW1 cell lines were used in syngeneic models. Injection of SW1 melanoma cells subcutaneously into C3H mice was followed by daily injections of CSL intraperitoneally (IP). […] Briefly, SW1 cells that stably express GFP were injected s.c into C3H mice. When the tumor reached the size of 50 mm^3, the vehicle, CSL (1 mg/kg), CA16 (0.5 mg/kg) or CA19 (0.5 mg/kg) were administered i.p, every second day for a period of 24 days. Tumor size was measured at the indicated times. Data presented in FIG. 6b represents two experiments.

[2] = Tolerability of administration to mice; assay type: in vivo, mouse; conditions: daily administration, doses up to 1 mg/kg
Method: as §4

SMILES	Activity or EC50 (μM) in SW1 cells (SW1 cells)	Activity or EC50 (μM) in WM115 cells (WM115 cells)	Activity or EC50 (μM) in WM793 cells (WM793 cells)	also measured
COc1ccc(CNC(=O)C2(C)CCC3(C)CCC4(C)C5=CC=C6C(=CC(=O)C(O)=C6C)C5(C)CCC4(C)C3C2)cc1 (centres unmarked) [CA01]	active			
CNC(=O)C1(C)CCC2(C)CCC3(C)C4=CC=C5C(=CC(=O)C(O)=C5C)C4(C)CCC3(C)C2C1 (centres unmarked) [CA13]		inactive	inactive	
CC1=C(O)C(=O)C=C2C1=CC=C1C2(C)CCC2(C)C3CC(C)(C(=O)N(C)C)CCC3(C)CCC12C (centres unmarked) [CA05]	active		inactive	
COC(=O)[C@]1(C)CC[C@]2(C)CC[C@]3(C)C4=CC=C5C(=CC(=O)C(O)=C5C)[C@]4(C)CC[C@@]3(C)[C@@H]2C1 [Pristimerin, pristimerin, reference compound]				EC50 (SW1 cells; Mus musculus, numeric EC50 cells of the column, read-out: Activity or EC50 (μM) in SW1 cells): < 0.1 µM
CC1=C(O)C(=O)C=C2C1=CC=C1C2(C)CCC2(C)C3CC(C)(C(=O)NCc4ccccc4)CCC3(C)CCC12C (centres unmarked) [CA02]	inactive	inactive	inactive	
CC1=C(O)C(=O)C=C2C1=CC=C1C2(C)CCC2(C)C3CC(C)(C(=O)NCc4cccnc4)CCC3(C)CCC12C (centres unmarked) [CA03]	active	Inactive	inactive	
CC1=C(O)C(=O)C=C2C1=CC=C1C2(C)CCC2(C)C3CC(C)(C(=O)NC(C)C)CCC3(C)CCC12C (centres unmarked) [CA04]	active		inactive	
CC1=C(O)C(=O)C=C2C1=CC=C1C2(C)CCC2(C)C3CC(C)(C(=O)N4CCCC4)CCC3(C)CCC12C (centres unmarked) [CA06]	active			
CC1=C(O)C(=O)C=C2C1=CC=C1C2(C)CCC2(C)C3CC(C)(C(=O)N4CCOCC4)CCC3(C)CCC12C (centres unmarked) [CA08]	inactive	inactive	inactive	
CC1=C(O)C(=O)C=C2C1=CC=C1C2(C)CCC2(C)C3CC(C)(C(=O)OCc4ccccc4)CCC3(C)CCC12C (centres unmarked) [CA16]				1-2 mm and mediastinal lesions [1]: some activity was observed; development of large lung lesions [1]: no impact; development of small sized lesions (SW1 mouse melanoma): opposite effect; metastatic lesions (SW1 mouse melanoma): somewhat active; decrease in tumor size (SW1 tumors): about 50%; toxicity or discomfort in mice [2]: did not result in toxicity or any noticeable discomfort
Cc1c(O)c(O)cc2c1CC=C1[C@@]2(C)CC[C@@]2(C)[C@@H]3C[C@](C)(C(=O)O)CC[C@]3(C)CC[C@]12C [Dihydrocelastrol, dihydrocelastrol, reference compound]	inactive			
CCOC(=O)C1(C)CCC2(C)CCC3(C)C4=CC=C5C(=CC(=O)C(O)=C5C)C4(C)CCC3(C)C2C1 (centres unmarked) [CA18]				ability to induce melanoma cell death, in words (SW1 cells; SW1 cells, compared with celastrol or other derivatives): not that efficient in the SW1 melanoma cells compared to CA19
COC(=O)COC(=O)C1(C)CCC2(C)CCC3(C)C4=CC=C5C(=CC(=O)C(O)=C5C)C4(C)CCC3(C)C2C1 (centres unmarked) [CA15]	Inactive			
CC1=C(O)C(=O)C=C2C1=CC=C1C2(C)CCC2(C)C3CC(C)(C(=O)N4CCN(C)CC4)CCC3(C)CCC12C (centres unmarked) [CA14]		inactive	inactive	
CC1=C(O)C(=O)C=C2C1=CC=C1C2(C)CCC2(C)C3CC(C)(C(=O)OC(C)C)CCC3(C)CCC12C (centres unmarked) [CA19]				growth of large, medium and small sized lesions in the lungs [1]: efficient in inhibiting growth of large medium and small sized lesions in the lungs; metastatic lesions (SW1 mouse melanoma): potently exhibit the ability to inhibit large as well as small metastatic lesions, with the exception of the 1-2 mm range; reduction of tumor growth (SW1 tumors): 5 fold; toxicity or discomfort in mice [2]: did not result in toxicity or any noticeable discomfort
COCCNC(=O)C1(C)CCC2(C)CCC3(C)C4=CC=C5C(=CC(=O)C(O)=C5C)C4(C)CCC3(C)C2C1 (centres unmarked) [CA07]	active	inactive		
